The results in this text go back to patent US4232010A, “Calcium-antagonistic composition” (Kanebo, Ltd., priority 1978, dated 1980).

Molecules are shown by their SMILES. Like-named read-outs stand apart in the source and are kept apart here.

The target in data set [1] is T1, taenia coli (Cavia porcellus, UniProt O35505).
T1 construct: a test was conducted using isolated taenia colis about 2 cm long; from tissue; host or cells: isolated guinea-pig taenia coli
Description: Calcium antagonist activity (pA2), isolated guinea-pig taenia coli. As to conditions: 5 cases, read-out: pA2 (mean ± standard error) of calcium antagonist activity (converted). The protocol:
(§1) Male guinea-pigs weighing 350-450 g each were slaughtered and a test was conducted using isolated taenia colis about 2 cm long. A taenia coli was suspended in a Magnus chamber (Locke solution, 25°±2° C., aerated) and the contractile response of the taenia coli was recodered through an isotonic transducer. To the decalcified taenia coli was cumulatively added 0.1 to 100 mM of calcium in the presence of 6×10^-3 g/ml of K^+ to obtain a dose-contraction curve for calcium and, after the taenia coli was decalcified again, a dose-contraction curve for calcium was determined in the presence of the test compound. Based on the difference between the responses, the pA2 of calcium antagonist activity of the test compound was computed.

For data set [2], the system named is isolated guinea-pig heart. In words: Action on coronary blood flow, isolated guinea-pig heart (Langendorff). The conditions noted are these: Cavia porcellus, dosage 10 γ/heart, read-out: Maximum increase in coronary flow (Δ% ± standard error). The protocol:
Male guinea-pigs with body weights from 400 to 500 g were slaughtered and promptly thoractomized. After the ascending aorta was cannulated, the heart was enucleated. By the method of Langendorff, this isolated heart was perfused with the Krebs-Henseleit fluid oxygenated with a gaseous mixture of 95% O2 and 5% CO2 at a fluid temperature of 34°±1° C. and perfusion pressure of 60 cm H2 O, and the test compound was infused. The coronary flows before and after infusion were measured and the percent gain in coronary flow was obtained. The coronary flow was measured with a square-wave electromagnetic flowmeter (Nihon Kohden, MF-26) with an extracorporeal probe (Nihon Kohden, FE) set at the top of the cannula and recorded with a multipurpose polygraph (Nihon Kohden, RM-85). The test compound was dissolved in propylene glycol to a concentration of 100 γ/ml and 0.1 ml of the solution was infused at the rate of 0.1 ml/min.

The nature of data set [3]: Acute toxicity test in mice, intraperitoneal. As to conditions: mouse, in vivo, ip, male ddY mice, deaths within 72 hours. The protocol:
An acute toxicity test was performed in male ddY mice (in groups of 5 animals, body weights 20±2 g) by the intraperitoneal administration of a test compound.
A suspension of each compound in 0.5% carboxymethylcellulose was administered, the deaths within 72 hours were counted and the LD50 values were calculated by the method of Weil.

The target in data set [4] is T2, taenia coli (Cavia porcellus).
T2 construct: a test was conducted using isolated taenia colis about 2 cm long; from tissue; host or cells: isolated guinea-pig taenia coli
T2 sequence (O35505 whole entry): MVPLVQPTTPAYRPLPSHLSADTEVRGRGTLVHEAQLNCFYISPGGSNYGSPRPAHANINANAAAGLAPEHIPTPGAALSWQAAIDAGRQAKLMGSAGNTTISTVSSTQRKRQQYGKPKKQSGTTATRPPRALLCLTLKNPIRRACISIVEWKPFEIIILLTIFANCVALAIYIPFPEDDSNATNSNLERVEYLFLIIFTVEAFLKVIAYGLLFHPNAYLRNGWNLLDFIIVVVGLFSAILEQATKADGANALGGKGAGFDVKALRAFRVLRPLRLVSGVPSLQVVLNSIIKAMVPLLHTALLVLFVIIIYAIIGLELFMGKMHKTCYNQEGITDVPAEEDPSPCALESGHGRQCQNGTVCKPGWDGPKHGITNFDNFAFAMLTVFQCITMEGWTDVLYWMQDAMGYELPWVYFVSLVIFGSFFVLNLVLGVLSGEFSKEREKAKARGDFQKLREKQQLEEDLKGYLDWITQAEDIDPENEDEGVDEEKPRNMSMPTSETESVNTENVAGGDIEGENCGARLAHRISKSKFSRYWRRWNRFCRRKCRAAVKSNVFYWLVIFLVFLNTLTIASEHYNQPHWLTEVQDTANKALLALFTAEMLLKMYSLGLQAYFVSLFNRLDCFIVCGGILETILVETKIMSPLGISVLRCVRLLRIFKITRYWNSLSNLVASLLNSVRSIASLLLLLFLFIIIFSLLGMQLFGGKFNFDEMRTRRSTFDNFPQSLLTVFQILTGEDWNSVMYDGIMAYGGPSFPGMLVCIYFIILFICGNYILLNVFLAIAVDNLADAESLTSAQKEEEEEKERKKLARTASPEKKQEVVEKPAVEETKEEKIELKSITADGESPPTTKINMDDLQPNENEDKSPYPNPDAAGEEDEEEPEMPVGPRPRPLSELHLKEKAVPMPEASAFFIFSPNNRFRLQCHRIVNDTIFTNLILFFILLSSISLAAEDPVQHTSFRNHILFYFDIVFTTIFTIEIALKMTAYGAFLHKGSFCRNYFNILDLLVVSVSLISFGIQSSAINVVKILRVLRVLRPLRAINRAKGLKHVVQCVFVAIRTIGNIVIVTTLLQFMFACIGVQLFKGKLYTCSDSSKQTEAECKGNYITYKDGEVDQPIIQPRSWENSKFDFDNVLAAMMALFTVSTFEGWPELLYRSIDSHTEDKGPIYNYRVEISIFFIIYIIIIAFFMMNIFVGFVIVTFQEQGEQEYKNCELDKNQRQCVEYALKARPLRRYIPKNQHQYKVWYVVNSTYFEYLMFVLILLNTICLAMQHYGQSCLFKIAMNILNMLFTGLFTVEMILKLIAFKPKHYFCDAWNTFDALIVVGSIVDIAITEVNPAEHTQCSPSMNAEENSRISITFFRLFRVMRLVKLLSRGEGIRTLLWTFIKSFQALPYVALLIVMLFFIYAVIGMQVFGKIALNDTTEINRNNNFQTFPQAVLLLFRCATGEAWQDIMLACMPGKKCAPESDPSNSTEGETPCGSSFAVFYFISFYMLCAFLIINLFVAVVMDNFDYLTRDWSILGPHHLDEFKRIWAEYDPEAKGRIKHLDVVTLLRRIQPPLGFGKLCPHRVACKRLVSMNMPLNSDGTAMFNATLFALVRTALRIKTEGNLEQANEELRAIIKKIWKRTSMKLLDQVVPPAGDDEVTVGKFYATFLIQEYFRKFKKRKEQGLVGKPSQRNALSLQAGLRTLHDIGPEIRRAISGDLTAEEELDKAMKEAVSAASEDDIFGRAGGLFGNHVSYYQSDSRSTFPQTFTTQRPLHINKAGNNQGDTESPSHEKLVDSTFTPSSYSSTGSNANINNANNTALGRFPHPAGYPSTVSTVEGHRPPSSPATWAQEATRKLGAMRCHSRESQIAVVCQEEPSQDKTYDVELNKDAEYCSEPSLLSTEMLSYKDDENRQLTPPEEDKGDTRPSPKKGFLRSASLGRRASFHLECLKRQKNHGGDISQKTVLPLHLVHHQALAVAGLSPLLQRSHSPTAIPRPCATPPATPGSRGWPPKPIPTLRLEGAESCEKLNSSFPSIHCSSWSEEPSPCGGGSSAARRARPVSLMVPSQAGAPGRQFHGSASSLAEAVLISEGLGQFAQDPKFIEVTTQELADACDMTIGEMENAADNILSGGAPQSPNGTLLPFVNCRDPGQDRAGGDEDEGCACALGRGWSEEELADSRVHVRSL
In words: Calcium antagonist activity (pA2), isolated guinea-pig taenia coli. The protocol: as §1

In data set [5] the test system is coronary flow and blood pressure. In words: Action on coronary flow and blood pressure (intravenous administration into dogs). As to conditions: 0.2 mg/kg. Format: in vivo, dog. The protocol: Dogs weighing 11 to 24 kg were anaesthetized with pentobarbital sodium (35 mg/kg, intraperitoneal) and, under supportive respiration, a right thoractomy was performed by removing the fourth rib. The pericardial membrane was then incised to expose the heart. The coronary sinus flow was measured with a cannula inserted from the right auricle into the coronary sinus and connected to an electromagnetic flowmeter (Nihon Kohden K.K., MF-26.) The outflowing blood was returned to the femoral vein through a rubber tubing.
The blood pressure was measured with a pressure transducer (Nihon Kohden K.K., MPU-0.5) connected to the cannula inserted into the femoral artery, and was recorded with a multipurpose polygraph (Nihon Kohden K.K., RM-85) which also recorded the coronary blood flow. The heart rate was calculated based on the electrocardiogram. The test compound was dissolved in dog serum and injected into the femoral vein.

For data set [6] the test system is unchanged. Description: Activity on intraduodenal administration to dogs (coronary flow, blood pressure, heart rate). The data set is classed as in vivo, dog. As to conditions: 10 mg/kg. The protocol:
Dogs weighing 12 to 22 kg were anaesthetized with pentobarbital sodium [35 mg/kg, i.p.] and under supportive respiration, a left thoractomy was performed at the fourth interspace. The pericardium was incised to expose the heart and the blood flow through circumflex branch of left coronary was measured with an electromagnetic flowmeter (Nihon Kohden K.K., MF-26). The blood pressure was measured from a cannula inserted into the carotid artery through a pressure transducer (Nihon Kohden K.K., MPU-0.5), while the heart rate was calculated based on the electrocardiogram. The abdomen was sutured with the end of the cannula left out of the body and the test compound was administered. The test compound was diluted with 0.5% CMC to a concentraion of 10 mg/ml and administered at a dose of 10 mg/kg.

Setting [7] is: time after administration 5 (unit not given).
[8] abbreviates: time after administration 30 (unit not given).
The mark [9] stands for this setting: time after administration 60 (unit not given).
Where [10] appears, read: time after administration 120 (unit not given).

T1 sequence (O35505 whole entry): as above

In the case of `CC(C)OP(=O)(Cc1ccc(-c2nc3ccccc3s2)cc1)OC(C)C` [1-(benzothiazol-2-yl)-4-di-iso-propyloxyphosphinylmethylbenzene], in data set [1] (test compound 3 × 10^-6 g/ml), the Kb was 0.776 µM. Also, the activation at 10 µg/heart in data set [2] was found to be 90.7 ± 31.7%. Moreover, the LD50 (as a rule, the dose expected to kill half of the subjects tested) at 72 h in data set [3] came out at 1660 mg/kg.

In the case of `CCCCOP(=O)(Cc1ccc(-c2nc3ccccc3s2)cc1)OCCCC` [1-(benzothiazol-2-yl)-4-di-n-butyloxyphosphinylmethylbenzene], the activation at 10 µg/heart in data set [2] was 65.1 ± 22.8%. Also, the LD50 at 72 h in data set [3] is over 2250 mg/kg.

With `CCCOP(=O)(Cc1ccc(-c2nc3ccccc3s2)cc1)OCCC` [1-(benzothiazol-2-yl)-4-di-n-propyloxyphosphinylmethylbenzene], the activation at 10 µg/heart in data set [2] is 65.1 ± 12.2%. Further, in data set [3], the LD50 at 72 h was over 2250 mg/kg.

Regarding `CCOP(=O)(Cc1ccc(-c2nc3ccccc3s2)cc1)OCC` [1-(benzothiazol-2-yl)-4-diethoxyphosphinylmethylbenzene], the Kb in data set [4] was 0.12 µM. The activation at 10 µg/heart in data set [2] came out at 83.8 ± 9%. Further, in data set [5], the “Change in heart rate (Δbeats/min. ± standard error)” value is -11.2 ± 2.1 Δbeats/min, the “Increase in coronary senus outflow (Δ% ± standard error)” value is 42.8 ± 6.2 Δ% and the “Mean change in blood pressure (ΔmmHg ± standard error)” value is given as -10.0 ± 3.6 ΔmmHg. Further, the LD50 at 72 h in data set [3] came out at 962 mg/kg.

As to `COP(=O)(Cc1ccc(-c2nc3ccccc3s2)cc1)OC` [1-(benzothiazol-2-yl)-4-dimethoxyphosphinylmethylbenzene], the activation at 10 µg/heart in data set [2] worked out at 38.5 ± 13.6%. This compound yielded an LD50 at 72 h in data set [3] of 1070 mg/kg.

As to `CC(C)OP(=O)(Cc1ccc(-c2nc3ccccc3s2)nc1)OC(C)C` [2-(benzothiazol-2-yl)-5-di-iso-propyloxyphosphinylmethylpyridine], the Kb in data set [1] (test compound 1 × 10^-6 g/ml) is 2.57 µM. In addition, the activation at 10 µg/heart in data set [2] is 79.9 ± 13.1%. The compound also displayed an LD50 at 72 h in data set [3] of over 2250 mg/kg.

As to `CCCCOP(=O)(Cc1ccc(-c2nc3ccccc3s2)nc1)OCCCC` [2-(benzothiazol-2-yl)-5-di-n-butyloxyphosphinylmethylpyridine], the Kb in data set [1] (test compound 1 × 10^-6 g/ml) is 4.07 µM. The activation at 10 µg/heart in data set [2] is 50.3 ± 10.8%.

Regarding `CCCOP(=O)(Cc1ccc(-c2nc3ccccc3s2)nc1)OCCC` [2-(benzothiazol-2-yl)-5-di-n-propyloxyphosphinylmethylpyridine], in data set [1] (test compound 1 × 10^-6 g/ml), the Kb was 1.12 µM. Besides, in data set [2], the activation at 10 µg/heart amounted to 66 ± 21.6%. In data set [3], this compound registered an LD50 at 72 h of 713 mg/kg.

As to `CCOP(=O)(Cc1ccc(-c2nc3ccccc3s2)nc1)OCC` [2-(benzothiazol-2-yl)-5-diethoxyphosphinylmethylpyridine], the Kb in data set [4] is 0.0372 µM. In addition, the activation at 10 µg/heart in data set [2] was 98.6 ± 10.6%. Moreover, the “Change in heart rate (Δbeats/min. ± standard error)” value in data set [5] is reported as -16.3 ± 3.2 Δbeats/min; in data set [6] (setting [7]), -5.6 ± 1.2 Δbeats/min; in data set [6] (setting [8]), -23.3 ± 3.8 Δbeats/min; in data set [6] (setting [9]), -26.9 ± 3.8 Δbeats/min; in data set [6] (setting [10]) it was -26.4 ± 3.8 Δbeats/min. Also, the “Increase in coronary senus outflow (Δ% ± standard error)” value in data set [5] is 74.4 ± 7.3 Δ%. Also, the “Mean change in blood pressure (ΔmmHg ± standard error)” value in data set [5] is reported as -14.5 ± 5.4 ΔmmHg; in data set [6] (setting [7]) it was -12.9 ± 3.4 ΔmmHg; in data set [6] (setting [8]), -12.4 ± 2.3 ΔmmHg; in data set [6] (setting [9]), -11.0 ± 3.5 ΔmmHg; in data set [6] (setting [10]), -11.2 ± 3.9 ΔmmHg. Moreover, the “Increase in blood flow through circumflex branch of left coronary (Δ% ± standard error)” value in data set [6] (setting [7]) is 14.3 ± 7.4 Δ%; in data set [6] (setting [8]), 37.7 ± 9.6 Δ%; in data set [6] (setting [9]) it was 54.4 ± 11.3 Δ%; in data set [6] (setting [10]), 50.7 ± 12.7 Δ%. Besides, the 50% lethal dose (LD50) at 72 h in data set [3] is 1060 mg/kg.

`COP(=O)(Cc1ccc(-c2nc3ccccc3s2)nc1)OC` [2-(benzothiazol-2-yl)-5-dimethoxyphosphinylmethylpyridine]: the activation at 10 µg/heart in data set [2] was found to be 28.6 ± 3.8%.

For `COc1ccc([C@@H]2Sc3ccccc3N(CCN(C)C)C(=O)[C@@H]2OC(C)=O)cc1` [Diltiazem, reference compound], in data set [2], the activation at 10 µg/heart is 66 ± 7.1%. In addition, the “Change in heart rate (Δbeats/min. ± standard error)” value in data set [5] is -20.5 ± 7.8 Δbeats/min; in data set [6] (setting [7]), 1.6 ± 2.0 Δbeats/min; in data set [6] (setting [8]), -13.2 ± 1.2 Δbeats/min; in data set [6] (setting [10]) it was -23.6 ± 4.0 Δbeats/min. Besides, in data set [5], the “Increase in coronary senus outflow (Δ% ± standard error)” value is 67.9 ± 8.5 Δ%. In addition, the “Mean change in blood pressure (ΔmmHg ± standard error)” value is -21.4 ± 6.1 ΔmmHg in data set [5]; -2.4 ± 1.3 ΔmmHg in data set [6] (setting [7]); -11.0 ± 1.3 ΔmmHg in data set [6] (setting [8]); -14.4 ± 2.3 ΔmmHg in data set [6] (setting [9]); -16.0 ± 4.7 ΔmmHg in data set [6] (setting [10]). The “Increase in blood flow through circumflex branch of left coronary (Δ% ± standard error)” value in data set [6] (setting [7]) is 1.8 ± 1.8 Δ%; in data set [6] (setting [8]), 34.4 ± 8.2 Δ%; in data set [6] (setting [9]), 33.0 ± 12.2 Δ%; in data set [6] (setting [10]), 34.8 ± 15.1 Δ%.
